We go through one compound from patent US6452005B1, “JAK-3 inhibitors for treating allergic disorders” (Parker Hughes Institute, priority 1999, dated 2002).

Data set [1] is described as follows: Pharmacokinetic studies in mice. In kind it is in vivo. Conditions: for Cmax: 12.5 mg/kg bolus, read-out: estimated maximum plasma concentration (Cmax). As to the method:
FIGS. 13A and 13B are graphs showing pharmacokinetic features of the JAK3 inhibitor WHI-P131 in mice. Plasma concentration-time profiles of WHI-P131 in mice following intravenous [13A] or intraperitoneal [13B] administration (12.5 mg/kg; 5 mice per group). The pharmacokinetic parameters, including the central volume of distribution (Vc), estimated maximum plasma concentration (Cmax), elimination half-life (t½β), systemic exposure level/area under plasma concentration-time curve (AUC), and bioavailability (F), are shown in the insets.
Pharmacokinetic Studies: In pharmacokinetic studies, mice were injected either intravenously (i.v.) via the tail vein or intraperitoneally (i.p.) with a bolus dose of 300 μg/mouse (12.5 mg/kg =34 μmols/kg) of WHI-P131. Blood samples were obtained from the ocular venous plexus by retroorbital venupuncture prior to and at 3 minutes, 5 minutes, 10 minutes, 15 minutes, 30 minutes, 45 minutes and 1 hour, 2 hours, 4 hours and 8 hours a administration of WHI-P131. All collected blood samples were heparinized and centrifuged at 7,000×g for 10 minutes in a microcentrifuge to obtain plasma. The plasma samples were stored at −20° C. until analysis. Aliquots of plasma were used for extraction and HPLC analysis. Pharmacokinetic modeling and pharmacokinetic parameter calculations were carried out using the pharmacokinetics software, WinNonline Program, Version 1.1. (Scientific Consulting Inc., Cary, N.C.). Concentration data were weighted by 1/concentration. An appropriate pharmacokinetic model was chosen on the basis of lowest weighted squared residuals, lowest Schwartz criterion (SC), lowest Akaike's Information Criterion (AIC) value, lowest standard errors of the fitted parameters, and dispersion of the residuals. The elimination half-life was estimated by linear regression analysis of the terminal phase of the plasma concentration profile. The area under the concentration time curve (AUC) was calculated by the trapezoidal rule between first (0 h) and last sampling time plus C/k, where C is the concentration of last sampling and k is the elimination rate constant. Systemic clearance (CL) was determined by dividing the dose by the AUC. The apparent volume of distribution at steady-state was calculated using the following equation, Vss=Dose·AUMC/(AUC)^2 Bioavailability (F) was estimated using the equation F(%)=AUCip×Doseiv/AUCiv×Doseip.
In brief, the HPLC system consisted of a Hewlett Packard (HP) series 1100 equipped with an automated electronic degasser, a quaternary pump, an autosampler, an automatic thermostatic column compartment, diode array detector and a computer with a Chemstation software program for data analysis. A 250×4 mm Lichrospher 100, RP-18 (5 μm) analytical column and a 4×4 mm Lichrospher 100, RP-18 (5 μm) guard column were obtained from Hewlett Packard Inc. (San Fernando, Calif.). Acetonitrile/water containing 0.1% of trifluoroacetic acid (TFA) and 0.1% triethylamine (TEA) (28:72, v/v) was used as the mobile phase. The wavelength of detection was set at 340 nm. Peak width, response time and slit were set at >0.03 minutes, 0.5 seconds and 8 nm, respectively. […] For extraction, 7 ml chloroform was then added to the plasma sample, and the mixture was vortexed thoroughly for 3 minutes. Following centrifugation (300×g, 5 minutes), the aqueous layer was frozen using acetone/dry ice and the organic phase was transferred into a clean test tube. The chloroform extracts were dried under a slow steady stream of nitrogen. The residue was reconstituted in 100 μL of methanol: water (9:1) and 50 μL aliquot of this solution was used for HPLC analysis.

Data set [2] concerns BALB/c mice. The data set is described as follows: Passive systemic anaphylaxis model. In kind it is in vivo. Conditions: pretreated mice. On the procedure:
FIG. 14B is a photograph showing plasma extravasation during systemic anaphylaxis, evaluated as described in the Examples.
FIG. 14C is a photograph showing results of histopathologic evaluation of mast cell degranulation. Ears were removed 1 hour after the antigen challenge from vehicle treated as well as WHI-P131 treated mice. Formalin-fixed thin sections (3-5 μm) of ears from were stained with Avidin-FITC.
FIG. 4D is a graph showing blood histamine levels of sensitized mice analyzed after antigen challenge. Blood was collected by retro-orbital bleeding and histamine levels were measured by ELISA. Histamine levels are expressed as nM. The histamine levels in the blood of PBS treated mice and IgE/antigen stimulated mice was 493±131 and 7527±2102 nM respectively. The results are the mean±SEM values; n=3.
To induce passive systemic anaphylaxis, BALB/c mice were sensitized with […] DNP-IgE intravenously. At 24 hours DNP-BSA (2 mg) was administered intravenously with 0.5% Evans blue (200 μl). For assessment of vascular leak, animals were sacrificed 30 minutes after the antigen challenge and their foot pads were examined for blue coloration. Histamine levels in plasma were measured 5 minutes after the antigen challenge. […] For histopathologic evaluation of tissue mast cell degranulation, ears of mice were removed 1 hour after the DNP-BSA injection and fixed in 10 percent buffered formalin. Processed thin sections (3-5 μm) were stained with Avidin-FITC (6.25 μg/ml) for 2 hours, washed with PBS to remove unbound dye and then mounted in buffered glycerol, 30 mM triethylenediamine, pH 8.6 (Malaviya et. al., 1994, J. Clin. Invest., 93:1645-1653). In the murine model for antigen induced active anaphylaxis, mice were sensitized with 2 mg BSA in 200 μl aluminum hydroxide gel (Reheis Inc., Berkeley, N.J.). Ten days later anaphylactic shock was induced by the i.v. injection of the animals with 200 μg BSA.

Molecules are shown by their SMILES. Where two headings read alike, the source gives them in different places.

For `COc1cc2ncnc(Nc3ccc(O)cc3)c2cc1OC` [WHI-P131, 4-(4′-Hydroxylphenyl)-amino-6,7-dimethoxyquinazoline], in data set [1] (i.p., 12.5 mg/kg), the absorption half-life came to 6 min, the estimated bioavailability is listed as 94.4%, the “time to reach maximum plasma concentration” value amounted to 0.17 h and the β-half-life came to 1.9 h. The Cmax in data set [1] (i.p.) was 57.7 µM. This compound displayed a β-half-life in data set [1] (i.v., 12.5 mg/kg) of 2.1 h. Besides, the Cmax in data set [1] (i.v.) is 85.6 µM. Moreover, the plasma histamine response result in data set [2] (5 minutes after antigen challenge) was “substantially reduced”. Besides, the “blue coloring of foot pads (plasma exudation)” value in data set [2] (30 min after antigen challenge) is “no significant blue coloring”. In addition, the “fluorescence intensity of avidin-FITC stained tissue mast cells (degranulation)” value in data set [2] (ears, after IgE/antigen challenge) is reported as “no reduction in fluorescence intensity”.
